IC50 data for 14 compounds are collected here from patent US20240018154A1, “NEW INDAZOLE DERIVATIVES” (Hoffmann-La Roche Inc., priority 2020, published 2024).

The structures appear in SMILES notation.

Broadly, the IC50 is the concentration needed to halve the response being measured.

For this test, the target named is T1, EGFR LRCS (BaF3-LRCS cell line) (Homo sapiens, UniProt P00533, C797S/L858R).
T1 construct: host or cells: BaF3 (BaF3-LRCS engineered line, kept under puromycin)
T1 sequence (P00533 25-1210 C797S/L858R): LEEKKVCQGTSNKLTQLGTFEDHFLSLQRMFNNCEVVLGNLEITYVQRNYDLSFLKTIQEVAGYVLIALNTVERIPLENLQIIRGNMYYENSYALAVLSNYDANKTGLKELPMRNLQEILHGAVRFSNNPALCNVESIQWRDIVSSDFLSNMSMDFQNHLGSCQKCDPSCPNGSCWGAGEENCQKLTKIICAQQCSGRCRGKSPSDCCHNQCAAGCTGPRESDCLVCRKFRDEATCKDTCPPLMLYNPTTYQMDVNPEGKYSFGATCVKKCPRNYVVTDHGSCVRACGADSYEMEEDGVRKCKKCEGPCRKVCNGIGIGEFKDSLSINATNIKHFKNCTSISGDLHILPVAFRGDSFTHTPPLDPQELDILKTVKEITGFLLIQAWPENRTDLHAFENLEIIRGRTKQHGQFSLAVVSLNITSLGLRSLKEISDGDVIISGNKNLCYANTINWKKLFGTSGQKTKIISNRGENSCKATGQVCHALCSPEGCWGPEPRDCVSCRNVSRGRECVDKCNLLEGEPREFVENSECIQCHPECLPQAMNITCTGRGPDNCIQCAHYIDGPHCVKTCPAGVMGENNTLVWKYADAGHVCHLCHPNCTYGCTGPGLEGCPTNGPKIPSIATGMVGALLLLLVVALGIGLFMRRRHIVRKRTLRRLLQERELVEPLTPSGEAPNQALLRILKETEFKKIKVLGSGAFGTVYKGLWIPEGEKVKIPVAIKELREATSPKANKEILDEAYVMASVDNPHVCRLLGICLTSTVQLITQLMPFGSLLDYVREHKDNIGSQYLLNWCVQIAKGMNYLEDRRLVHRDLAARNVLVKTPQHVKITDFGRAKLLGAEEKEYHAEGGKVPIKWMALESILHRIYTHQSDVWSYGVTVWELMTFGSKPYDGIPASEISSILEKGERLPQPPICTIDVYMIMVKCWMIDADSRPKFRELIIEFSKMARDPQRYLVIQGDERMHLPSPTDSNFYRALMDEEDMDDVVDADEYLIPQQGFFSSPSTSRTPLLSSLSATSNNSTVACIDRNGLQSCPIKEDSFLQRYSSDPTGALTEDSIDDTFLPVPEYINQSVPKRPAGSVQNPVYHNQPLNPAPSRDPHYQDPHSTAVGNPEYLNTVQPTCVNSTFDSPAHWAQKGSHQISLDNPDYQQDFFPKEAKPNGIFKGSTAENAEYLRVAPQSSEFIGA
In words: HTRF Phospho EGFR LRCS assay (cellular). The format is cell-based. Particulars: BaF3-LRCS cells, 4 hours incubation with compound, Phospho-EGFR HTRF readout. The protocol: HTRF Phospho EGFR LRCS Assay (Cellular)
BaF3-LRCS cell line were obtained from Crownbio (San Diego, CA, USA). Cells were maintained at 37° C., 5% CO2 in RPMI ATCC (Gibco 31870)+2 mM Glutamine+0.5 μg/ml Puromycin supplemented with 10% fetal bovine serum (FBS) (Gibco).
Cells are transferred as above to Greiner Bio-One, Nr. 784-08 micro-titerplate at 20000 cells/well in 12.5 μl of growth medium/well after the plates had been pre-filled with 12.5 nl of DMSO solutions of the to be tested compounds (in dose response) or DMSO only. After spinning the plates at 300×g for 30 seconds the cells were incubated for 4 hours at 37 C, 5% CO2, 95% humidity. The cells were lysed by adding to the compound mix 4 μl/well of the supplemented lysis buffer (Cis-bio, Phospho-EGFR HTRF kit, 64EG1PEH), followed by incubation for 30 min at room temperature with shaking (400 rpm). The plates were then frozen and stored overnight at −80° C. On the next day and after thawing the plates, 4 μl of a mixture of anti-Phospho-EGFR Cryptate and of anti-Phospho-EGFR-d2 antibody solutions prepared in the supplied detection buffer was added to each well. The lidded plates were then incubated for 4 h at room temperature before reading the fluorescence emission at 616 and 665 nm using an Envision reader (Perkin Elmer). Data was analyzed in similar fashion as above using the normalized ratio of the 665 to 616 signals multiplied by 10000.
Background: Time-resolved FRET reads energy transfer from a long-lived donor to a nearby acceptor.
Regarding `Cc1c(-c2ccc(N3CCC(S(C)(=O)=O)CC3)cc2)cc(C(F)F)c2cn(C(C(=O)Nc3nccs3)c3ncn4c3C[C@@H](F)C4)nc12` (stereo partly drawn) [Example 16, 2-[4-(Difluoromethyl)-7-methyl-6-[4-(4-methylsulfonyl-1-piperidyl)phenyl]indazol-2-yl]-2-[(6R)-6-fluoro-6,7-dihydro-5H-pyrrolo[1,2-c]imidazol-1-yl]-N-thiazol-2-yl-acetamide], the concentration for half-maximal inhibition (IC50) turned out to be 16 nM.

Take `Cc1c(-c2ccc(C3CC(CN4CCC(O)CC4)C3)cc2)cc(C(F)F)c2cn(C(C(=O)Nc3nccs3)c3ncn4c3C[C@@H](F)C4)nc12` (stereo partly drawn) [Example 17, 2-[4-(Difluoromethyl)-6-[4-[3-[(4-hydroxy-1-piperidyl)methyl]cyclobutyl]phenyl]-7-methyl-indazol-2-yl]-2-[(6R)-6-fluoro-6,7-dihydro-5H-pyrrolo[1,2-c]imidazol-1-yl]-N-thiazol-2-yl-acetamide]: the IC50 worked out at 30 nM. To `Cc1c(-c2ccc(OCCN3CCOCC3)cc2)cc(C(F)F)c2cn(C(C(=O)Nc3nccs3)c3ncn4c3C[C@@H](F)C4)nc12` (stereo partly drawn) [Example 18, 2-[4-(Difluoromethyl)-7-methyl-6-[4-(2-morpholinoethoxy)phenyl]indazol-2-yl]-2-[(6R)-6-fluoro-6,7-dihydro-5H-pyrrolo[1,2-c]imidazol-1-yl]-N-thiazol-2-yl-acetamide] belongs 28 nM; to `Cc1c(-c2ccc(N3CC(CN4CCC(CO)CC4)C3)cc2)cc(C(F)F)c2cn(C(C(=O)Nc3nccs3)c3ncn4c3C[C@@H](F)C4)nc12` (stereo partly drawn) [Example 19, 2-(4-(Difluoromethyl)-6-(4-(3-((4-(hydroxymethyl)piperidin-1-yl)methyl)azetidin-1-yl)phenyl)-7-methyl-211-indazol-2-yl)-2-((R)-6-fluoro-6,7-dihydro-5H-pyrrolo[1,2-c]imidazol-1-yl)-N-(thiazol-2-yl)acetamide], 16 nM. Consider `Cc1c(-c2ccc(N3CCN(CCO)CC3)cc2)cc(C(F)F)c2cn(C(C(=O)Nc3nccs3)c3ncn4c3C[C@@H](F)C4)nc12` (stereo partly drawn) [Example 20, 2-[4-(Difluoromethyl)-6-[4-[4-(2-hydroxyethyl)piperazin-1-yl]phenyl]-7-methyl-indazol-2-yl]-2-[(6R)-6-fluoro-6,7-dihydro-5H-pyrrolo[1,2-c]imidazol-1-yl]-N-thiazol-2-yl-acetamide], for which the IC50 worked out at 12 nM. For `Cc1c(-c2ccc(N3CCOCC3)nc2)cc(C(F)F)c2cn(C(C(=O)Nc3nccs3)c3ncn4c3C[C@@H](F)C4)nc12` (stereo partly drawn) [Example 21, 2-[4-(Difluoromethyl)-7-methyl-6-(6-morpholino-3-pyridyl)indazol-2-yl]-2-[(6R)-6-fluoro-6,7-dihydro-5H-pyrrolo[1,2-c]imidazol-1-yl]-N-thiazol-2-yl-acetamide] the value was 12 nM; for `Cc1c(-c2ccc(OCCN3CCC(C(C)O)CC3)cc2)cc(C(F)F)c2cn(C(C(=O)Nc3nccs3)c3ncn4c3C[C@@H](F)C4)nc12` (stereo partly drawn) [Example 22, 2-[4-(Difluoromethyl)-6-[4-[2-[4-(1-hydroxyethyl)-1-piperidyl]ethoxy]phenyl]-7-methyl-indazol-2-yl]-2-[(6R)-6-fluoro-6,7-dihydro-5H-pyrrolo[1,2-c]imidazol-1-yl]-N-thiazol-2-yl-acetamide], 30 nM; for `Cc1c(-c2ccc(C3CCN(CC(C)F)CC3)cc2)cc(C(F)F)c2cn(C(C(=O)Nc3nccs3)c3ncn4c3C[C@@H](F)C4)nc12` (stereo partly drawn) [Example 23, 2-[4-(Difluoromethyl)-6-[4-[1-(2-fluoropropyl)-4-piperidyl]phenyl]-7-methyl-indazol-2-yl]-2-[(6R)-6-fluoro-6,7-dihydro-5H-pyrrolo[1,2-c]imidazol-1-yl]-N-thiazol-2-yl-acetamide], 21 nM. Consider `Cc1c(-c2ccc(N3CCC(C)(O)CC3)cc2)cc(C(F)F)c2cn(C(C(=O)Nc3nccs3)c3ncn4c3C[C@@H](F)C4)nc12` (stereo partly drawn) [Example 24, 2-[4-(Difluoromethyl)-6-[4-(4-hydroxy-4-methyl-1-piperidyl)phenyl]-7-methyl-indazol-2-yl]-2-[(6R)-6-fluoro-6,7-dihydro-5H-pyrrolo[1,2-c]imidazol-1-yl]-N-thiazol-2-yl-acetamide], for which the IC50 came out at 25 nM.

With `CCN1C[C@H]2CN(c3ccc(-c4cc(C(F)F)c5cn(C(C(=O)Nc6nccs6)c6ncn7c6C[C@@H](F)C7)nc5c4C)cc3)C[C@]2(F)C1` (stereo partly drawn) [Example 25, 2-[6-[4-[(3aR,6aS)-2-Ethyl-3a-fluoro-3,4,6,6a-tetrahydro-1H-pyrrolo[3,4-c]pyrrol-5-yl]phenyl]-4-(difluoromethyl)-7-methyl-indazol-2-yl]-2-[(6R)-6-fluoro-6,7-dihydro-5H-pyrrolo[1,2-c]imidazol-1-yl]-N-thiazol-2-yl-acetamide], the IC50 came out at 29 nM. For `Cc1c(-c2ccc(N3CCOC(CN(C)C)C3)cc2)cc(C(F)F)c2cn(C(C(=O)Nc3nccs3)c3ncn4c3C[C@@H](F)C4)nc12` (stereo partly drawn) [Example 26, 2-[4-(Difluoromethyl)-6-[4-[2-[(dimethylamino)methyl]morpholin-4-yl]phenyl]-7-methyl-indazol-2-yl]-2-[(6R)-6-fluoro-6,7-dihydro-5H-pyrrolo[1,2-c]imidazol-1-yl]-N-thiazol-2-yl-acetamide] the value was 78 nM; for `Cc1c(-c2ccc(CCN3CCC(O)CC3)cc2)cc(C(F)F)c2cn(C(C(=O)Nc3nccs3)c3ncn4c3C[C@@H](F)C4)nc12` (stereo partly drawn) [Example 27, 2-[4-(Difluoromethyl)-6-[4-[2-(4-hydroxy-1-piperidyl)ethyl]phenyl]-7-methyl-indazol-2-yl]-2-[(6R)-6-fluoro-6,7-dihydro-5H-pyrrolo[1,2-c]imidazol-1-yl]-N-thiazol-2-yl-acetamide], 28 nM. Consider `Cc1c(-c2ccc(CN(C)C3CCC(O)CC3)cc2)cc(C(F)F)c2cn(C(C(=O)Nc3nccs3)c3ncn4c3C[C@@H](F)C4)nc12` (stereo partly drawn) [Example 28, 2-[4-(Difluoromethyl)-6-[4-[[(4-hydroxycyclohexyl)-methyl-amino]methyl]phenyl]-7-methyl-indazol-2-yl]-2-[(6R)-6-fluoro-6,7-dihydro-5H-pyrrolo[1,2-c]imidazol-1-yl]-N-thiazol-2-yl-acetamide], for which the IC50 was determined as 34 nM. In the case of `Cc1c(-c2ccc(N3C[C@H]4CN(CC(C)F)C[C@H]4C3)cc2)cc(C(F)F)c2cn(C(C(=O)Nc3nccs3)c3ncn4c3C[C@@H](F)C4)nc12` (stereo partly drawn) [Example 29, 2-[6-[4-[(3aR,6aS)-2-(2-Fluoropropyl)-1,3,3a,4,6,6a-hexahydropyrrolo[3,4-c]pyrrol-5-yl]phenyl]-4-(difluoromethyl)-7-methyl-indazol-2-yl]-2-[(6R)-6-fluoro-6,7-dihydro-5H-pyrrolo[1,2-c]imidazol-1-yl]-N-thiazol-2-yl-acetamide], the IC50 is 28 nM.
